# From a melting point compilation (Tetko et al.; mined from patent text by program, amines drawn as free bases though some values may be those of a salt)
row,Structure (SMILES),melting point [°C]
1,CCN(CC)CCn1nc2c3c(cccc31)C(=O)c1c(NCCNCCO)cccc1-2,129 to 132
2,CCC(=O)Nc1nc(CN2CCC(OC(c3ccccc3)c3ccccc3)CC2)cs1,86 to 88
3,COc1ccc2c3c(c(=O)oc2c1)CN(Cc1ccc(Cl)cc1)CC3,140 to 142
4,CCN(CC)c1cccc2nc3n(c12)CC(=O)CCN3c1ccc(Cl)cc1Cl,169 to 170
5,CN(C)c1ncnc2c(NC3OC(CO)C(O)C3O)ncnc12 (stereo not drawn),231
6,COC(=O)/C(=C/C=C/c1ccc2ccccc2n1)OC,88
7,O=c1ssc(-c2cnccn2)c1CBr,119
8,N#Cc1cnc2sc(-c3ccccc3)cc2c1Cl,202 to 204
9,O=S(CC#CCOc1ccccc1)c1ccc(Cl)cc1 (stereo not drawn),102 to 103
10,COC(=O)C(C(=O)OC)C(=O)C(C)Oc1ccc(Oc2ccc(C(F)(F)F)cc2)cc1 (stereo not drawn),40 to 44
11,CC(C=O)Oc1ccc(Cl)cc1Cl (stereo not drawn),87 to 88
12,COc1ccc(C(O)(c2ccc(OC)cc2)[C@@H](N)C2CCCCC2)cc1,146 to 147
13,O=C(O)CCCCCCCCN1C(=O)C(c2ccccc2)N(c2ccccc2)C1=O (stereo not drawn),112
14,COC(=O)C=CC=CCSc1ccc2ccccc2c1,73 to 75
15,CCCCNC(=O)N(C(=O)NCCCC)c1c(OC(=O)N(CC)CC)nc(C)c2cc(OC)c(OC)cc12,138 to 140
16,O=C(O)c1nn(-c2ccc(Cl)cc2Cl)c(-c2ccc(Cl)cc2)c1COCCO,182
17,CS(=O)c1cc(CCC(=O)O)nc(-c2nc(=O)c3ccccc3s2)c1 (stereo not drawn),266
18,NS(=O)(=O)c1ccc(-n2nc(C(F)(F)F)cc2-c2ccc(-c3cscn3)c(F)c2)cc1F,196 to 198
19,CCOC(=O)c1cn(C2CC2)c2cc(-c3cc(C)nc(C)c3)c(F)cc2c1=O,198 to 200
20,CCN(C(=O)OC(C)(C)C)C(Cc1ccccc1)C(=O)NC(CCSC)C(=O)NCC(=O)NC(Cc1ccccc1)C(=O)NC1C2CC3CC(C2)CC1C3 (stereo not drawn),175 to 178
21,Nc1ccc(C2=NNC(=O)CC2)cc1N,226
22,C=CCn1c(=O)c2nc(-c3ccc(/C=C/C(=O)O)cc3)[nH]c2n(CC=C)c1=O,> 300
23,Fc1cccc2c(NCCc3ccc4ccccc4c3)ccnc12,173 to 174
24,COc1ccc2c(c1OC)CCC1CNC(=O)C21 (stereo not drawn),185 to 187
25,CC(C)Oc1ccc(NC(=S)NCc2ccoc2)cc1,89 to 90
26,COC(=O)c1ccc2sccc2c1O,94 to 95

row,Structure (SMILES),melting point [°C]
1,COP(=O)(CCC(C)(C)c1ccc(O)cc1)OC,98 to 101
2,NC(=S)Nc1ccccc1-c1ccccc1F,175 to 177
3,Cn1cc(C(=O)NCc2ccc(Cl)cc2)c(=O)c2cc(CC3CCOCC3)cc(I)c21,175 to 177
4,CCCCCCCCCCCCCCCCCCOc1cc(C(=O)O)cc([N+](=O)[O-])c1,101 to 103
5,Cn1cc(C2=C(c3cn(CCO)c4ccccc34)C(=O)NC2=O)c2ccccc21,250 to 252
6,C=Cc1ncn(-c2c(Cl)cc(C(F)(F)F)cc2Cl)n1,97 to 99
7,Cc1ccc2c(C(=O)NCCc3ccccc3)c(Cl)ccc2n1,170 to 172
8,Cc1nc(C[C@H]2CC[C@@](C)(NCC(=O)N3C[C@@H](F)C[C@H]3C#N)C2(C)C)no1,121 to 123
9,CCc1[nH]n(C2CCCC2)c2nc(-c3ccccc3O)nc(=O)c1-2,272 to 273
10,CC(C)(C)c1cc(-c2nn(CC(F)(F)F)c3ncccc23)cc(C(C)(C)C)c1O,104 to 106
11,COC(=O)Cc1cc(C(=O)c2ccc(C#Cc3ccccc3)c(N)c2)sc1-c1ccccc1,146 to 148
12,COC(=O)C1=CSCC1OC (stereo not drawn),79 to 81
13,O=C(NCCCn1ccnc1)c1ccco1,111 to 113
14,Nc1c(-c2ccc(NS(=O)(=O)c3ccccc3Cl)cc2F)cnc2c(CO)cnn12,204 to 208
15,Cc1cc(C)c(-n2c(C)cc(C)c(C#N)c2=O)cc1NS(=O)(=O)C(F)(F)F,274 to 276
16,CCOC(=O)C(=O)Nc1ccc(C(F)(F)F)cc1C,120 to 121
17,CCOC(=O)c1cc(C#N)c(N)cc1OC,164
18,Cc1nc(Nc2nc3ccc([N+](=O)[O-])cc3[nH]2)nc(O)c1CC(=O)O,> 300
19,CC(=O)c1ccc(S(=O)(=O)N2CCN(C)CC2)cc1,118 to 119
20,N#Cc1ccc(-c2ccc(OCCCC(=O)NO)cc2)cc1,170 to 172
21,O=C(C=Cc1ccccc1)c1cc(Cl)ccc1O,142 to 145
22,COc1ccc(-c2c[nH]c(S)n2)cc1,204
23,COc1cc2ncc(C#N)c(Nc3ccc(C(N)=O)cc3)c2cc1OC,> 250
24,CCc1nnc2n1N=C1c3cc(OC)c(OC)cc3CC1S2 (stereo not drawn),212
25,COc1ncc(C)nc1NS(=O)(=O)c1cccc(Cl)c1Cl,50 to 60
26,NCC(=O)Nc1cccc(C(N)=O)c1,139 to 140

row,Structure (SMILES),melting point [°C]
1,C[C@@H](O)C(O)(Cn1ccnc1)c1ccc(F)cc1F (stereo partly drawn),73 to 76
2,CC(C)(C)OC(=O)N1CCC(C#N)(c2ccc(Cl)c(Cl)c2)CC1,142 to 145
3,CCOC(=O)c1[nH]c(C)c(C(C)CC)c1C (stereo not drawn),102 to 104
4,O=C1OCCC1=Cc1ccccc1OCC1CO1 (stereo not drawn),68 to 70
5,COc1cc(OC)cc(N2CCN(C(=O)Nc3cc(-c4cccnc4)nc4ccccc34)CC2)c1,95 to 96
6,CCOC(=O)CCC(CC(=O)c1ccc(NCc2ccc3ccc4nc(C)[nH]c(=O)c4c3c2)cc1)C(=O)OCC (racemic),189 to 190
7,CCCCCc1ccc([C@H]2CC[C@H](c3ccc(C#N)cc3)CC2)cc1,80
8,CC(C)(C)c1cc(C=C2SC(NCO)=NC2=O)cc(C(C)(C)C)c1O,177 to 179
9,N#CC1c2ccccc2COc2ccccc21 (stereo not drawn),65 to 66.5
10,O=c1nc(-c2cc(-c3ccccc3)ccn2)sc2ccccc12,164 to 165
11,NC(=O)c1cc2n(n1)-c1ccc(Cl)cc1C(c1ccccc1)=NC2,216 to 218
12,COc1cc(N)c(S(C)(=O)=O)cc1C(=O)NCC1CCCN1C (stereo not drawn),190 to 191
13,Cn1cnc(COc2nn3c(-c4ccon4)nnc3c3ccccc23)c1,191 to 192
14,Cc1c(=O)[nH]c(=O)n2cc(C(=O)O)sc12,> 205
15,O=C(O)C(=O)c1c(F)cc(OCCOc2ccc3ccccc3c2)cc1F,157 to 158
16,NC1Cc2ccccc2N(C(=O)c2ccc(NC(=O)c3cc(Cl)cc(Cl)c3)cc2)C1 (stereo not drawn),207 to 210
17,CCOC(=O)Nc1cc(F)c(C#N)cc1F,107
18,O=C1c2cc([N+](=O)[O-])cc3cc([N+](=O)[O-])cc(c23)C(=O)N1O,317 to 320
19,CCCn1nc2c(N)nc3ccccc3c2c1CCCCC(=N)NO,222 to 224
20,O=C(O)CC(Sc1ccccc1)c1ccc(Cl)cc1 (stereo not drawn),99 to 102
21,CCOP(=O)(OCC)C(F)(F)c1ccc(NC(=O)CCc2oc(-n3cnc4ccccc43)nc2-c2ccc(Cl)cc2)cc1,155 to 156
22,OCc1cc2ccsc2s1,85 to 87
23,CC(C)(C(N)=O)n1cc(-c2ccc(Oc3ccccc3)cc2)c2c(N)ncnc21,227 to 228
24,COc1ccc(-c2cncc(OC3SCC(O)C(O)C3O)c2)c(C)c1 (stereo not drawn),231
25,CCN(CC)C(=O)c1ccc([N+](=O)[O-])c(C)c1,74.5 to 76
26,CCCCCCCCNC1=NS(=O)(=O)c2cnccc2N1,176 to 179

row,Structure (SMILES),melting point [°C]
1,COc1ccc(Nc2ccn(-c3ccccc3)n2)cc1,96 to 98
2,O=[N+]([O-])c1ccc2c(c1)NCC(C(F)F)(C(F)F)O2,150 to 152
3,Cc1ncc(CO)cc1OC(=O)c1cccs1,59 to 61
4,CCCCCCCCCCCCCCCCCCOc1cc2ccccc2c(N)c1O,97 to 99
5,COc1cc2c(cc1OC)C(O)N(CCc1ccccc1)C2=O (stereo not drawn),130
6,Cc1nc(NC(=O)NC(C)(C)C)ccc1-c1ccncc1,297 to 300
7,CCOC(=O)c1ccc(NC(=O)c2ccc3c(c2)CCC(C)(C)C(=O)N3C)cc1,169 to 170
8,CN(C)CCC1(c2ccccc2)CCc2ccccc2C1=O (stereo not drawn),71 to 72
9,O=CC=C(c1ccccc1F)c1ccccc1F,75 to 77
10,COc1cc(C(=O)NS(=O)(=O)c2ccccc2)cnc1C(=O)O,176 to 178
11,CN1C=CCC2C1N2S(=O)(=O)c1ccc(N)cc1 (stereo not drawn),188 to 190
12,Cc1ccc2c(c1)C(C(=O)Nc1c(C(C)C)cc(SC#N)cc1C(C)C)c1ccccc1CO2 (stereo not drawn),146
13,CN(C)C(c1cccc(F)c1)C1CCC(C=O)CC1 (stereo not drawn),40 to 43
14,CCOc1ccc(S(=O)(=O)N(CC(=O)NN=C2C(=O)Nc3ccc(I)cc32)c2ccccc2)cc1,233 to 234
15,O=[N+]([O-])c1ccc(C=Cc2ccc(N3CCC(O)CC3)cc2)cc1,248 to 250
16,Cc1cscc1-c1cccc2c1nnn2-c1ccnc(NC2CCN(S(C)(=O)=O)CC2)n1,244 to 245
17,CCNC(NC(C)=O)C(=O)NCc1ccccc1 (stereo not drawn),123 to 125
18,O=C1C(=Cc2c(Cl)cccc2Cl)CCc2ccccc21,73.8 to 75.6
19,Cc1nccnc1C(=O)Nc1ccccc1-c1ccc(OC(F)(F)F)cc1,120 to 121
20,Cc1cc([N+](=O)[O-])ccc1Oc1cncc(Cl)c1,80 to 82
21,CCOc1nc2c(C)sc(C(=O)OC)c2n1Cc1ccc(-c2ccccc2)c(-c2nc(=O)o[nH]2)c1,208 to 210
22,COc1cc(COc2nn(-c3ccccc3)cc2C(=O)O)ccc1OCc1nc(-c2ccco2)oc1C,184 to 185
23,C=CCNc1nc(C)c(C(=O)c2ccc(N)c([N+](=O)[O-])c2)s1,250 to 252
24,O=S(=O)(Nc1ccc2c(OCc3nc(-c4ccc(F)cc4)no3)cccc2c1)C(F)(F)F,131 to 132
25,O=C(O)CCCCCSc1ccc(NS(=O)(=O)c2ccc(Cl)cc2)cc1,160 to 163
